According to patent publication US20040259948A1, “Reciprocal regulation of inflammation and lipid metabolism by liver X receptors” (priority 2003, published 2004):

Tests used:
C57B1/6 mice = assay: Murine model of irritant contact dermatitis (TPA-treated ear); type: in vivo; conditions: topical 20 μl of 10 mM at 45 min and 4 h post-TPA; 18 h; relative to vehicle-treated ear
Method: The effects of LXR ligands in both acute and chronic inflammatory contexts were evaluated. First, the effects of LXR agonists in a murine model of irritant contact dermatitis (Sheu, M. Y. et al. 2002 J Invest Dermatol 118:94-101) were studied. Ears of C57B1/6 mice (n=5 per group) were treated topically with 12-O-tetradecanoylphorbol-13-acetate (TPA) (left ear) or with vehicle (right ear). […] Thickness and weight of 6-mm punch biopsies were determined for each group after 18 h TPA treatment and are presented relative to vehicle-treated ear. […] Analysis of hematoxylin and eosin (H&E) stained sections of the TPA-treated ears confirmed a reduction in edema and inflammatory infiltrate by LXR agonist. Thus, two structurally unrelated LXR agonists have anti-inflammatory activity in a model of cutaneous inflammation.
Animals. Mice on a mixed background (C57B1/6 and 129v) and Apoe^−/− mice on a C57B1/6 background were maintained on standard chow. […] Irritant contact dermatitis was induced as described (Sheu, M. Y. et al. 2002 J Invest Dermatol 118:94-101). Briefly, 10 μl of 0.03% 12-O-tetradecanoylphorbol-13-acetate (TPA) in acetone was applied to the left ears of male mice. The right ears were treated with vehicle alone. […] After 18 h of TPA treatment, the thickness and weight of 6-mm punch biopsies were determined. Statistical analysis was performed using Student's t-test. Experiments were conducted in accordance of the Animal Research Committee of the University of California, Los Angeles.

[1] = tested on: Thioglycolate-elicited murine peritoneal macrophages; assay: IL-1β- or TNFα-induced inflammatory gene expression in macrophages; type: cell-based; conditions: pretreated 18 h; IL-1β or TNFα (50 ng/ml); real-time quantitative PCR
Method: Next, the influence of LXR agonists on inflammatory gene expression induced by IL-1β and TNFα, which have been implicated in the pathogenesis of atherosclerosis, was tested. […] Gene expression was detected by real-time quantitative PCR assays. […] Total RNA was isolated from individual aortas and gene expression was measured by real-time quantitative PCR. P<0.05 for MMP-9 (*) and P<0.01 (**) for ABCA1. […] Thus, LXR agonist reduces expression of an established inflammatory mediator in the vessel wall. Cell culture and transfections. Thioglycolate-elicited peritoneal macrophages were cultured in RPMI containing 10% fetal bovine serum (FBS). RAW 264.7 cells were cultured in DMEM containing 10% FBS. For ligand treatments, cells were in cultured medium supplemented with 5% lipoprotein-deficient serum (LPDS) and ligands for 18 h before stimulation. Bacterial infection in vitro was performed as described (Chen, L. M. et al. 1996 Mol Microbiol 21:1101-1115). Transient transfections of RAW 264.7 cells were performed in triplicate in 48-well plates using Superfect reagent (Life Technologies). After transfection, cells were incubated in medium containing 10% LPDS and the indicated ligands for 18 h before stimulation with LPS for an additional 18 h. Luciferase activity was normalized to β-galactosidase activity. NO production was determined spectrophotometrically (Castrillo, A. et al. 2000 Mol Cell Biol 20:1692-1698). RNA and protein analysis. Total RNA was extracted using Trizol reagent (Life Technologies, Inc.). Northern blot analysis was carried out as described using radiolabeled cDNA probes (Tontonoz, P. et al. 1998 Cell 93:241-252). Real-time quantitative PCR (TaqMan) analysis was performed using an Applied Biosystems 7700 sequence detector. Two-step real-time PCR was performed as described (Joseph, S. B. et al. 2002 J Biol Chem 277:11019-11025). The primers and probes used are as follows: […]

**Q.** How did the ear thickness (C57B1/6 mice) turn out when `O=C(O)Cc1cccc(OCCCN(Cc2cccc(C(F)(F)F)c2Cl)CC(c2ccccc2)c2ccccc2)c1` [GW3965] was run?
**A.** reduced

**Q.** What about the “ear weight (6-mm punch biopsies)” value (C57B1/6 mice) of the same compound?
**A.** reduced

**Q.** And the “induction of IL-6 expression” value [1]?
**A.** inhibited

**Q.** What about the “induction of iNOS expression” value [1] of the same compound?
**A.** inhibited
